US5506238A, “Biphenylmethane derivative and pharmacological use” (Eisai Co., Ltd., priority 1989, dated 1996)

What was measured:
[1] = target: T1, angiotensin II contracture of rabbit aortic strip (Oryctolagus cuniculus, UniProt P34976); experiment: Angiotensin II contracture antagonism through the use of rabbit aortic strip; type: cell-based, rabbit (New Zealand white); details: negative log of antagonist concentration giving dose ratio 2, Schild's equation, 40 min preincubation, read-out: pA2 (converted)
T1 construct: A spiral preparation of the aorta having a width of 1.5 to 2 mm and a length of 15 to 20 mm was prepared therefrom; from tissue; host or cells: thoracic aorta of male New Zealand white rabbit, spiral strip
T1 sequence (P34976 1-359): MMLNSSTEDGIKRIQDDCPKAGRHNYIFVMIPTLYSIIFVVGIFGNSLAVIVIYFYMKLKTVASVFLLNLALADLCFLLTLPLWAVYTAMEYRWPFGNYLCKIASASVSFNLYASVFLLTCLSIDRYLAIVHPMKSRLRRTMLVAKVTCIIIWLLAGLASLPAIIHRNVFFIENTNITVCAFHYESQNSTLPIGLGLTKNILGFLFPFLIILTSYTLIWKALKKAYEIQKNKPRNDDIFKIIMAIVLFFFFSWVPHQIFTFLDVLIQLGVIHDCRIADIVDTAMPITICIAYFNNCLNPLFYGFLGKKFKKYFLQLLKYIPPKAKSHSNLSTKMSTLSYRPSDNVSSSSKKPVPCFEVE
Method: (1) Angiotens in II contracture antagonism through the use of rabbit aortic strip A male New Zealand white rabbit having a weight of 2 to 3 kg was anesthetized with pentobarbital sodium, and the thoracic aorta was removed. A spiral preparation of the aorta having a width of 1.5 to 2 mm and a length of 15 to 20 mm was prepared therefrom and suspended in a 10-ml Magnus tank containing a Krebs bicarbonate solution (Krebs bicarbonate (mM): NaCl 118.4, KCl 4.7, CaCl2 2.0, MgSO4.7H2O 1.2, NaHCO3.25.0, KH2 PO4 1.2, glucose 11.1). 10^-5 M indomethacine was added thereto to eliminate the influence of prostaglandin. The Krebs solution was maintained at 37° C. and bubbled with 95% O2 -5% CO2. An initial tension of 1 g was applied to the strip, and the strip was allowed to stand for about 1 hr. Then, 50 mM KCl was added thereto to induce contracture. After the contracture was stabilized, the strip was washed. The above procedure was repeated twice, and the second contracture was taken as 100% contracture. Thereafter, angiotensin II was accumulatively added from 10^-10 to 3×10^-6 to prepare a dose-reaction curve. […] The contraction was recorded on a multi-pen recorder (R-10 manufactured by Rika Denki Kogyo Co., Ltd.) through a carrier amplifier (A[…] or A[…] manufactured by Nihon Koden Corp.) by making use of an isometric piezoelectric transducer ([…] manufactured by Nihon Koden Corp.). The potency of the angiotensin II antagonist was determined by calculating negative logarithm (-log) of a concentration of pA2 value [i.e., a concentration of competitive antagonist which makes the dose ratio of the active agent 2] through the use of Schild's equation.

[2] = Seven-day repeated oral administration, observation of death in SD rats; type: in vivo; details: 100 mg/kg/day orally for seven days; eight week-old male SD rats; observed until 24 hr after final administration
Method: Further, compound Nos. 1, 2, 5 and 6 listed in the above-described Table 1 were suspended in 0.5% MC (methylcellulose), and the suspension was orally administered to an eight week-old male SD (Sprague Dawley) rats (4 rats per group) in a dose of 100 mg/kg/day for seven days. The rats were observed until 24 hr after the final administration.

[3] = tested on: pressor reaction of angiotensin II; experiment: Inhibition of pressor reaction of angiotensin II on anesthetized rat (Wistar Kyoto) having blocked ganglions; type: in vivo; details: iv, 0.05 h, ganglion-blocked Wistar Kyoto rat, i.v., 3 min after administration, read-out: Dose necessary for shifting about doubled shift of pressor reaction of angiotensin toward right (ED50)
Method: (2) Inhibition of pressor reaction of angiotensin II on anesthetized rat (Wistar Kyoto) having blocked ganglions
A 9 to 25 week-old Wistar Kyoto male rat (Charles River Japan) was anesthetized with 50 mg/kg pentobarbital sodium intraperitoneally, and the carotid and jugular were cannulated. The carotid cannula was connected to a piezoelectric transducer (TP-200T), and recording was conducted with a polygraph system (RM-6000 manufactured by Nihon Koden Corp.) through a carrier amplifier (AP-601G manufactured by Nihon Koden Corp.) and an average blood pressure measuring panel (Nihon Koden Corp.) utilizing the integration of pulse waves. 10 mg/kg of pentolinium was administered intravenously through the jugular cannula to conduct ganglion blockade. […] Then, 0.1 to 10 mg/kg of the test compound was administered intravenously, and 0.03 to 1 μg/kg of angiotensin II was again administered intravenously 3 min after the administration of the test compound to determine the rate of shift of the dose-pressor reaction curve toward the right. A dose (C, ED50, mg/kg, i.v.) necessary for bringing about doubled shift of the dose-pressor reaction curve toward the right was determined from the dose of the antagonist (A, mg/kg, i.v.) and the above-described rate of shift (B). [formula]

Structure (SMILES) | Kb [1] [nM] | death [2] | ED50 [3] [mg/kg]
CCCCc1nc2ccccc2n1Cc1ccc(-c2ccccc2-c2nn[nH]n2)cc1 [compound 1] | 7.76 | no death was observed | 0.74
CCCc1nc2cccnc2n1Cc1ccc(-c2ccccc2-c2nn[nH]n2)cc1 [compound 2] | 0.832 | no death was observed | 0.15
CCCc1nc2cccnc2n1Cc1ccc(-c2cc(Cl)ccc2-c2nnn[nH]2)cc1 [compound 3] | 1.55 | – | 0.44
CCc1nc2cc(Br)cnc2n1Cc1ccc(-c2ccccc2-c2nnn[nH]2)cc1 [compound 4] | 10 | – | 1.57
CCCc1nc2c(C)ccnc2n1Cc1ccc(-c2ccccc2-c2nn[nH]n2)cc1 [compound 5] | 0.0468 | no death was observed | 0.029
CCc1nc2c(C)ccnc2n1Cc1ccc(-c2ccccc2-c2nnn[nH]2)cc1 [compound 6] | 0.0912 | no death was observed | 0.019
Cc1ccnc2c1nc(C1CC1)n2Cc1ccc(-c2ccccc2-c2nnn[nH]2)cc1 [compound 7] | 0.0229 | – | 0.022
CCCCc1nc2cccnc2n1Cc1ccc(-c2cc(OC)ccc2-c2nnn[nH]2)cc1 [compound 8] | 4.27 | – | 0.71
CCCc1ccnc2c1nc(CC)n2Cc1ccc(-c2ccccc2-c2nnn[nH]2)cc1 [compound 9] | 23.4 | – | 1.33
Cc1ccnc2c1nc(C(C)C)n2Cc1ccc(-c2ccccc2-c2nnn[nH]2)cc1 [compound 10] | 0.661 | – | 0.42
CCSc1nc2c(C)ccnc2n1Cc1ccc(-c2ccccc2-c2nnn[nH]2)cc1 [compound 11] | 0.182 | – | 0.04
CSc1nc2c(C)ccnc2n1Cc1ccc(-c2ccccc2-c2nnn[nH]2)cc1 [compound 12] | 0.525 | – | 0.13
CCCc1nc2c(Cl)ccnc2n1Cc1ccc(-c2ccccc2C(=O)O)cc1 [compound 13] | 8.71 | – | 0.66
CCc1nc2ccc(Cl)nc2n1Cc1ccc(-c2ccccc2-c2nnn[nH]2)cc1 [compound 14] | 2.95 | – | 0.35
CCCc1nc2c(C)c(Cl)cnc2n1Cc1ccc(-c2ccccc2-c2nnn[nH]2)cc1 [compound 15] | 1.35 | – | 0.32
CCc1nc2c(C)ccnc2n1Cc1ccc(-c2ccccc2C(=O)O)cc1 [compound 16] | 3.16 | – | 0.29

Structure (SMILES) | Kb [1] [nM] | death [2] | ED50 [3] [mg/kg]
CCCc1nc2c(C)ccnc2n1Cc1ccc(-c2ccccc2C(=O)O)cc1 [compound 17] | 3.55 | – | 0.17
Cc1ccnc2c1nc(C1CC1)n2Cc1ccc(-c2ccccc2C(=O)O)cc1 [compound 18] | 2.14 | – | 0.075
Cc1ccnc2c1nc(C1CCC1)n2Cc1ccc(-c2ccccc2C(=O)O)cc1 [compound 19] | 4.9 | – | 0.25
CCSc1nc2c(C)ccnc2n1Cc1ccc(-c2ccccc2C(=O)O)cc1 [compound 20] | 5.25 | – | 0.41
CCCc1nc2c(C)ccnc2n1Cc1ccc(-c2cc(Cl)ccc2-c2nnn[nH]2)cc1 [compound 21] | 0.0115 | – | 0.071
CCCc1nc2c(C)cc(C)nc2n1Cc1ccc(-c2ccccc2-c2nnn[nH]2)cc1 [compound 22] | 0.024 | – | 0.04
CCCc1nc2c(C)cc(C)nc2n1Cc1ccc(-c2ccccc2C(=O)O)cc1 [compound 23] | 1.15 | – | 0.08
Cc1cc(C)c2nc(C3CC3)n(Cc3ccc(-c4ccccc4-c4nnn[nH]4)cc3)c2n1 [compound 24] | 0.0138 | – | 0.015
Cc1cc(C)c2nc(C3CC3)n(Cc3ccc(-c4ccccc4C(=O)O)cc3)c2n1 [compound 25] | 0.589 | – | 0.021
CCOc1nc2c(C)ccnc2n1Cc1ccc(-c2ccccc2-c2nnn[nH]2)cc1 [compound 26] | 0.0263 | – | 0.0084
CCCOc1nc2c(C)ccnc2n1Cc1ccc(-c2ccccc2-c2nnn[nH]2)cc1 [compound 27] | 0.372 | – | 0.034
CC#Cc1nc2c(C)ccnc2n1Cc1ccc(-c2ccccc2-c2nnn[nH]2)cc1 [compound 28] | 0.891 | – | 0.04
Cc1ccnc2c1nc(C1CC1)n2Cc1ccc(-c2cc(Cl)ccc2C(=O)O)cc1 [compound 29] | 3.39 | – | 0.06
COc1nc2c(C)ccnc2n1Cc1ccc(-c2ccccc2-c2nnn[nH]2)cc1 [compound 30] | 0.132 | – | 0.016
CCOc1nc2c(C)cc(C)nc2n1Cc1ccc(-c2ccccc2-c2nnn[nH]2)cc1 [compound 31] | 0.182 | – | 0.01
CCOc1nc2c(C)cc(C)nc2n1Cc1ccc(-c2ccccc2C(=O)O)cc1 [compound 32] | 0.575 | – | 0.018
